Measured values reported in US20250345333A1, “THERAPIES WITH PPAR AGONISTS AND FGFR4 INHIBITORS” (TYRA BIOSCIENCES, INC., priority 2022, published 2025).
Read-outs that look alike come from different tables or passages of the source.

Experiments:
[1] = test system: serum C4 (7-alpha-hydroxy-4-cholestene-3-one); assay: Serum C4 in athymic nude (Nu/Nu) mice; type: in vivo; details: FGF401 at 30 mg/kg, H3B-6527 at 300 mg/kg
[2] = test system: CYP7A1 expression in Hep3B cells; assay: CYP7A1 mRNA expression (qPCR, relative to Actin) in Hep3B cells
Method: (§1) Fenofibrate or fenofibric acid was applied at a concentration of 2, 5, and 10 μM added simultaneously in combination with 30 nM of BLU-554 in growth media (DMEM supplemented with 10% Fetal Bovine Serum), for 18 hours. mRNA was then isolated and CYP7A1 expression was measured using TaqMan™ qPCR Assays (CYP7A1 assay ID: Hs00167982_m1, ACTNB assay ID: Hs99999903_m1).
(§2) Hep3B and HUH-7 cells were treated with 10 μg/ml mouse Isotype monoclonal IgG control (R&D-MAB002), or 2 μg/ml, 5 μg/ml, and 10 μg/ml of hFGF19 Antibody (R&D-AF969) for 24 hours. mRNA was then isolated and CYP7A1 expression was measured using qPCR. The depicted data represent the fold change in CYP7A1 mRNA levels compared to vehicle (DMSO) treated cells, and Actin was used as internal control.
(§3) Hep3B and HUH-7 cells were treated with 10 μg/ml of hFGF19 Antibody (R&D-AF969) in combination with 2 μM, 5 μM, or 10 μM of fenofibrate, for 24 hours. Two control groups included; untreated cells, and cell treated with 10 μg/ml mouse Isotype monoclonal IgG (R&D-MAB002), for 24 hours.

[3] = test system: CYP7A1 expression in HuH-7 cells; assay: CYP7A1 mRNA expression (qPCR, relative to Actin) in HuH-7 cells
Method: as §1, §2, §3

[4] = test system: serum C4 (7-alpha-hydroxy-4-cholestene-3-one); assay: Serum C4 in athymic nude mice carrying HuH-7 tumors; type: in vivo; details: 14 days; for serum C4 levels: HuH-7 tumor-bearing mice, inhibitor alone: BLU554 100 mg/kg BID, FGF401 30 or 100 mg/kg BID
bile acid (BA) levels = assay: Bile acid levels in liver, plasma and gallbladder of athymic nude mice; details: oral, BID, 3 weeks; H3B-6527 300 mg/kg, FGF401 30 mg/kg; 4 hours after final dose; vs vehicle
Method: FIGS. 14A-14C are bar graphs depicting changes in bile acid (BA) levels (fold change over control) in liver (FIG. 14A), plasma (FIG. 14B), and gallbladder (FIG. 14C) of athymic nude (Nu/Nu) mice treated orally with vehicle ((1) 0.5% MC/tween), H3B-6527 ((2) 300 mg/kg, BID), or FGF401/Roblitinib ((3) 30 mg/kg, BID), for 3 weeks. Four hours after the final dose, mice were euthanized and plasma, liver and gallbladder samples were collected, and bile acid levels measured.
FIGS. 14A-14C are bar graphs depicting changes of bile acid (BA) levels (fold change over control) in liver (FIG. 14A), plasma (FIG. 14B), and gallbladder (FIG. 14C) of athymic nude (Nu/Nu) mice treated orally with vehicle (0.5% MC/tween), H3B-6527 (300 mg/kg, BID), or FGF401/Roblitinib (30 mg/kg, BID), for 3 weeks. Four hours after the final dose, mice were euthanized and plasma, liver and gallbladder samples were collected and bile acid levels measured. Bile acids were measured at the metabolomics core facility of University of Kansas Medical Center, following an established protocol.

[5] = test system: Cyp7a1 mRNA expression in mouse livers; assay: Liver Cyp7a1 mRNA expression in mice
Method: For the in vivo experiments, male C57BL/6 mice were dosed orally with vehicle, fenofibrate, an FGFR4 inhibitor, or with a combination of fenofibrate and an FGFR4 inhibitor at the doses indicated. Before the final day of the study, animals were fasted overnight and serum was collected 4 hours after the final dose. Serum C4 (7-alpha-hydroxy- 4-cholestene-3-one) analyses were carried out on an Agilent 6495 triple quadrupole mass spectrometer with jet stream source coupled to an Agilent 1290 UPLC stack. Data was processed using Waters TargetLynx data processing software. Calibration curves were generated using reference standard (7A4C; Sigma-Aldrich). Calibration range was from 0.5ng/ml-200 ng/ml with an internal deuterated standard (7A4C-D7; Avanti Polar Lipids) concentration of 100 ng/ml. The vehicle for fenofibrate, FGF401 and H3B-6527 was 0.5% methylcellulose/0.5% tween 80 (MC/Tween), and the vehicle for BLU554 was 80% PEG400/4% hydroxypropyl-β-cyclodextrin (HPBCD). When combination treatments were tested, the vehicle treatment groups received both vehicles, formulated separately. In the combination treatment groups, the compounds were formulated and dosed separately.

[6] = test system: serum C4 (7-alpha-hydroxy-4-cholestene-3-one); assay: Serum C4 in C57BL/6 mice dosed orally
Method: For the in vivo experiments, male C57BL/6 mice were dosed orally with vehicle, fenofibrate, an FGFR4 inhibitor, or with a combination of fenofibrate and an FGFR4 inhibitor at the doses indicated. Before the final day of the study, animals were fasted overnight and serum was collected 4 hours after the final dose. Serum C4 (7-alpha-hydroxy- 4-cholestene-3-one) analyses were carried out on an Agilent 6495 triple quadrupole mass spectrometer with jet stream source coupled to an Agilent 1290 UPLC stack. Data was processed using Waters TargetLynx data processing software. Calibration curves were generated using reference standard (7A4C; Sigma-Aldrich). Calibration range was from 0.5ng/ml-200 ng/ml with an internal deuterated standard (7A4C-D7; Avanti Polar Lipids) concentration of 100 ng/ml. […] When combination treatments were tested, the vehicle treatment groups received both vehicles, formulated separately. In the combination treatment groups, the compounds were formulated and dosed separately. The mean C4 value for each group of 4 mice is shown, and error bars represent standard error of the mean.

## C=CC(=O)Nc1cc(N2CCN(CC)CC2)ccc1Nc1cc(N(C)C(=O)Nc2c(Cl)c(OC)cc(OC)c2Cl)ncn1 [H3B-6527]
[1]
  levels of serum C4: increases in levels of serum C4

## COCCNc1cc(NC(=O)N2CCCc3cc(CN4CCN(C)CC4=O)c(C=O)nc32)ncc1C#N [FGF-401, roblitinib]
[2]
  CYP7A1 expression (Relative mRNA expression/Actin): increased CYP7A1 expression
[3]
  CYP7A1 expression (Relative mRNA expression/Actin): increased CYP7A1 expression
[1]
  levels of serum C4: increases in levels of serum C4
[4]
  serum C4 levels: significantly raised levels
Bile acid (BA) levels
  bile acids level in gall bladder (fold change over control): increased bile acids level
  bile acids level in liver (fold change over control): increased bile acids level
  bile acids level in plasma (fold change over control): increased bile acids level

## CC(C)OC(=O)C(C)(C)Oc1ccc(C(=O)c2ccc(Cl)cc2)cc1 [fenofibrate]
[4]; fenofibrate 40 mg/kg QD plus BLU554 100 mg/kg BID
  rise in serum C4: significantly attenuated the rise in C4
[4]; fenofibrate 40 mg/kg QD plus FGF401 30 mg/kg BID
  rise in serum C4: attenuated the rise in C4
[5]; fenofibrate co-administered with BLU-554 (100 mg/kg)
  liver Cyp7a1 mRNA expression (% Actb): reversed BLU-554-induced Cyp7a1 upregulation in mouse livers, in a dose dependent manner
[6]; different doses of fenofibrate in combination with BLU-554 (100 mg/Kg), 6 days
  serum C4 levels: reduced the increase in C4 caused by BLU554

## C=CC(=O)N1CC[C@H](n2nc(C#Cc3cc(OC)cc(OC)c3)c3c(N)ncnc32)C1 [futibatinib]
[2]; Hep3B cells, increasing concentrations of inhibitor alone, 18 hours
  CYP7A1 expression (Relative mRNA expression/Actin): increased CYP7A1 expression
[3]; HuH-7 cells, increasing concentrations of inhibitor alone, 18 hours
  CYP7A1 expression (Relative mRNA expression/Actin): increased CYP7A1 expression

## C=CC(=O)N[C@H]1CCOC[C@H]1Nc1ncc2cc(-c3c(Cl)c(OC)cc(OC)c3Cl)ccc2n1 [BLU-554, fisogatinib]
[2]
  CYP7A1 expression (Relative mRNA expression/Actin): increased CYP7A1 expression
[3]
  CYP7A1 expression (Relative mRNA expression/Actin): increased CYP7A1 expression
[4]
  serum C4 levels: significantly raised levels
[5]; BLU-554 (100 mg/kg) alone
  liver Cyp7a1 mRNA expression (% Actb): Cyp7a1 upregulation
[6]; C57BL/6 mice, BLU554 at 100 mg/kg
  levels of serum C4: increases in levels of serum C4

## COc1cc(OC)cc(N(CCNC(C)C)c2ccc3ncc(-c4cnn(C)c4)nc3c2)c1 [erdafitinib]
[2]
  CYP7A1 expression (Relative mRNA expression/Actin): increased CYP7A1 expression
[3]
  CYP7A1 expression (Relative mRNA expression/Actin): increased CYP7A1 expression
